Measurements: US10370343B2, “[6,6] Fused bicyclic HDAC8 inhibitors” (FORMA Therapeutics, Inc., priority 2015, dated 2019)

Target: T1, Recombinant N-terminal GST tag full-length human HDAC8 (Homo sapiens, UniProt Q9BY41)
T1 construct: Recombinant N-terminal GST tag full-length human HDAC8; purchased SignalChem H90-30G-1000; host or cells: baculovirus in Sf9 insect cells
T1 sequence (Q9BY41 1-377): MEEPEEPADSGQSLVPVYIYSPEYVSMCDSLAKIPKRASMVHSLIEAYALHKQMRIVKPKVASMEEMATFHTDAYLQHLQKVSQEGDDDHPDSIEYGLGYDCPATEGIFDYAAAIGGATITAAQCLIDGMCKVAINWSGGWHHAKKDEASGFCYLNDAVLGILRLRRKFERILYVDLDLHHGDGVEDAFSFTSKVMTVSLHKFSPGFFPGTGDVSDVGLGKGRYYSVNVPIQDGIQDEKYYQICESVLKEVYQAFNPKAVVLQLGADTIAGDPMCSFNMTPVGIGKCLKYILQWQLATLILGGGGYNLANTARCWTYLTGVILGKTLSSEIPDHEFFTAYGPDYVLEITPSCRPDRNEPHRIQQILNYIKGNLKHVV
Assay: HDAC8 probe binding assay, time resolved fluorescence (TRF) format
Conditions: compounds grouped by IC50 range (Table 2)
Protocol: The HDAC8 probe binding assay was performed using a time resolved fluorescence (TRF) assay format. Recombinant N-terminal GST tag full-length human HDAC8 was expressed and purified from baculovirus in Sf9 insect cells (SignalChem, #[…]-1000). […] Plates were incubated for 16 hours at room temperature before time resolved fluorescence was read on the Envision (Excitation at 340 nm, and Emission at 485 nm and 535 nm, Perkin Elmer). Data from HDAC8 Assays were reported as percent inhibition (inh) compared with control wells based on the following equation: % inh=1-((FLU-AveLow)/(AveHigh-AveLow)) where FLU=measured time resolved fluorescence. AveLow=average time resolved fluorescence of no enzyme control (n=32). AveHigh=average time resolved fluorescence of DMSO control (n=32). IC50 values were determined by curve fitting of the standard 4 parameter logistic fitting algorithm included in the Activity Base software package: IDBS XE Designer Model205. Data is fitted using the Levenburg Marquardt algorithm. Ranges of IC50 values for compounds of the invention are disclosed in Table 2: Table 2. provides the compounds arranged according to […] determined in a time resolved fluorescence (TRF) assay. The compounds are separated into four groups: […]

| SMILES | IC50 |
| --- | --- |
| CC1(C)Oc2ccc(C(=O)NO)cc2N(Cc2ccc(OC(F)(F)F)cc2F)C1=O [Compound I-322, 4-(2-fluoro-4-(trifluoromethoxy)benzyl)-N-hydroxy-2,2-dimethyl-3-oxo-3,4-dihydro-2H-benzo[b][1,4]oxazine-6-carboxamide] | 25 to 100 nM |
| O=C(NO)c1ccc2c(c1)N(Cc1cc(F)cc(Cl)c1)C(=O)CO2 [Compound I-343, 4-(3-chloro-5-fluorobenzyl)-N-hydroxy-3-oxo-3,4-dihydro-2H-benzo[b][1,4]oxazine-6-carboxamide] | ≤ 25 nM |
| O=C(NO)c1ccc2c(c1)N(Cc1ccncc1)C(=O)CO2 [Compound I-215, N-hydroxy-3-oxo-4-(pyridin-4-ylmethyl)-3,4-dihydro-2H-benzo[b][1,4]oxazine-6-carboxamide] | 25 to 100 nM |
| COc1ccc(F)c(CN2C(=O)COc3ccc(C(=O)NO)cc32)c1 [Compound I-371, 4-(2-fluoro-5-methoxybenzyl)-N-hydroxy-3-oxo-3,4-dihydro-2H-benzo[b][1,4]oxazine-6-carboxamide] | ≤ 25 nM |
| COc1cnc2sc(CN3C(=O)COc4ccc(C(=O)NO)cc43)nc2c1 [Compound I-208, N-hydroxy-4-((6-methoxythiazolo[5,4-b]pyridin-2-yl)methyl)-3-oxo-3,4-dihydro-2H-benzo[b][1,4]oxazine-6-carboxamide] | ≤ 25 nM |
| O=C(NO)c1ccc2c(c1)N(Cc1cnn(-c3ccccc3)n1)C(=O)CO2 [Compound I-180, N-hydroxy-3-oxo-4-((2-phenyl-2H-1,2,3-triazol-4-yl)methyl)-3,4-dihydro-2H-benzo[b][1,4]oxazine-6-carboxamide] | ≤ 25 nM |
| O=C(NO)c1ccc2c(c1)N(Cc1cn3cc(F)ccc3n1)C(=O)CO2 [Compound I-368, 4-((6-fluoroimidazo[1,2-a]pyridin-2-yl)methyl)-N-hydroxy-3-oxo-3,4-dihydro-2H-benzo[b][1,4]oxazine-6-carboxamide] | 25 to 100 nM |
| COc1cc(CN2C(=O)COc3ccc(C(=O)NO)cc32)ccc1Cl [Compound I-350, 4-(4-chloro-3-methoxybenzyl)-N-hydroxy-3-oxo-3,4-dihydro-2H-benzo[b][1,4]oxazine-6-carboxamide] | ≤ 25 nM |
| CC1(C)Oc2ccc(C(=O)NO)cc2N(Cc2cccc(Oc3ccc(Cl)cc3)c2)C1=O [Compound I-227, 4-(3-(4-chlorophenoxy)benzyl)-N-hydroxy-2,2-dimethyl-3-oxo-3,4-dihydro-2H-benzo[b][1,4]oxazine-6-carboxamide] | ≤ 25 nM |
| O=C(NO)c1ccc2c(c1)N(Cc1ccc(-n3cncn3)cc1)C(=O)CO2 [Compound I-175, 4-(4-(1H-1,2,4-triazol-1-yl)benzyl)-N-hydroxy-3-oxo-3,4-dihydro-2H-benzo[b][1,4]oxazine-6-carboxamide] | ≤ 25 nM |
| CC1(C)Oc2ccc(C(=O)NO)cc2N(Cc2cccc(C(F)(F)F)c2)C1=O [Compound I-300, N-hydroxy-2,2-dimethyl-3-oxo-4-(3-(trifluoromethyl)benzyl)-3,4-dihydro-2H-benzo[b][1,4]oxazine-6-carboxamide] | 25 to 100 nM |
| O=C(NO)c1ccc2c(c1)N(Cc1cccc(Oc3ccc(Cl)cc3)c1)C(=O)CO2 [Compound I-226, 4-(3-(4-chlorophenoxy)benzyl)-N-hydroxy-3-oxo-3,4-dihydro-2H-benzo[b][1,4]oxazine-6-carboxamide] | ≤ 25 nM |
| C[C@@H](c1ccccc1)N1C(=O)C(C)(C)Oc2ccc(C(=O)NO)cc21 [Compound I-303, (S)-N-hydroxy-2,2-dimethyl-3-oxo-4-(1-phenylethyl)-3,4-dihydro-2H-benzo[b][1,4]oxazine-6-carboxamide] | 25 to 100 nM |
| O=C(NO)c1ccc2c(c1)N(CC1CCc3ccccc3O1)C(=O)CO2 (racemic) [Compound I-184, (+/−)-4-(chroman-2-ylmethyl)-N-hydroxy-3-oxo-3,4-dihydro-2H-benzo[b][1,4]oxazine-6-carboxamide] | 25 to 100 nM |
| CC(=O)Nc1ccc(CN2C(=O)COc3ccc(C(=O)NO)cc32)cc1 [Compound I-186, 4-(4-acetamidobenzyl)-N-hydroxy-3-oxo-3,4-dihydro-2H-benzo[b][1,4]oxazine-6-carboxamide] | ≤ 25 nM |
| Cn1cc2ccc(CN3C(=O)COc4ccc(C(=O)NO)cc43)cc2n1 [Compound I-240, N-hydroxy-4-((2-methyl-2H-indazol-6-yl)methyl)-3-oxo-3,4-dihydro-2H-benzo[b][1,4]oxazine-6-carboxamide] | ≤ 25 nM |
| O=C(NO)c1ccc2c(c1)N(Cc1ccc(Oc3ccccc3)cc1)C(=O)CO2 [Compound I-229, N-hydroxy-3-oxo-4-(4-phenoxybenzyl)-3,4-dihydro-2H-benzo[b][1,4]oxazine-6-carboxamide] | 25 to 100 nM |
| COc1ccc(CN2C(=O)COc3ccc(C(=O)NO)cc32)c(F)c1 [Compound I-341, 4-(2-fluoro-4-methoxybenzyl)-N-hydroxy-3-oxo-3,4-dihydro-2H-benzo[b][1,4]oxazine-6-carboxamide] | ≤ 25 nM |
| O=C(NO)c1ccc2c(c1)N(Cc1ncc(-c3ccccc3)o1)C(=O)CO2 [Compound I-191, N-hydroxy-3-oxo-4-((5-phenyloxazol-2-yl)methyl)-3,4-dihydro-2H-benzo[b][1,4]oxazine-6-carboxamide] | ≤ 25 nM |
| O=C(NO)c1ccc2c(c1)N(CC1COc3ccccc3O1)C(=O)CO2 (racemic) [Compound I-185, (+/−)-4-((2,3-dihydrobenzo[b][1,4]dioxin-2-yl)methyl)-N-hydroxy-3-oxo-3,4-dihydro-2H-benzo[b][1,4]oxazine-6-carboxamide] | ≤ 25 nM |
| O=C(NO)c1ccc2c(c1)N(Cc1ccc3ncccc3c1)C(=O)CO2 [Compound I-231, N-hydroxy-3-oxo-4-(quinolin-6-ylmethyl)-3,4-dihydro-2H-benzo[b][1,4]oxazine-6-carboxamide] | ≤ 25 nM |
| COc1ccc(CN2C(=O)OCc3ccc(C(=O)NO)cc32)cc1 [Compound I-165, N-hydroxy-1-(4-methoxybenzyl)-2-oxo-2,4-dihydro-1H-benzo[d][1,3]oxazine-7-carboxamide] | ≤ 25 nM |
| CC1(C)Oc2ccc(C(=O)NO)cc2N(Cc2ccc3ccccc3c2)C1=O [Compound I-317, N-hydroxy-2,2-dimethyl-4-(naphthalen-2-ylmethyl)-3-oxo-3,4-dihydro-2H-benzo[b][1,4]oxazine-6-carboxamide] | 25 to 100 nM |
| O=C(NO)c1ccc2c(c1)N(Cc1cccc(C(F)(F)F)c1Cl)C(=O)CO2 [Compound I-354, 4-(2-chloro-3-(trifluoromethyl)benzyl)-N-hydroxy-3-oxo-3,4-dihydro-2H-benzo[b][1,4]oxazine-6-carboxamide] | 25 to 100 nM |
| CN1CCCc2cc(CN3C(=O)COc4ccc(C(=O)NO)cc43)ccc21 [Compound I-182, N-hydroxy-4-((1-methyl-1,2,3,4-tetrahydroquinolin-6-yl)methyl)-3-oxo-3,4-dihydro-2H-benzo[b][1,4]oxazine-6-carboxamide] | 25 to 100 nM |
| O=C(NO)c1ccc2c(c1)N(Cc1cnn(C3CC3)c1)C(=O)CO2 [Compound I-206, 4-((1-cyclopropyl-1H-pyrazol-4-yl)methyl)-N-hydroxy-3-oxo-3,4-dihydro-2H-benzo[b][1,4]oxazine-6-carboxamide] | 25 to 100 nM |
